Numbers after ± are expanded uncertainties.
How the values were obtained:
[1] = 298.15 K; 101.33 kPa; Liquid
[2] = xn = mol fraction of the nth substance listed; conditions: 298.15 K, 101 kPa, Liquid

CCCO [propan-1-ol]
Conditions | mass density [kg/m3]
[1] | 800.61 ± 0.29

Cc1ccccc1 [toluene]
Conditions | mass density [kg/m3]
[1] | 862.23 ± 0.27

CC(C)OC(C)C [diisopropyl ether]
Conditions | mass density [kg/m3]
[1] | 719.17 ± 0.33

CC(C)OC(C)C [diisopropyl ether] + CCCO
[2]
Conditions | mass density [kg/m3]
x1 = 0.0508 | 794.63 ± 0.29
x1 = 0.0999 | 789.64 ± 0.3
x1 = 0.2 | 779.84 ± 0.3
x1 = 0.2998 | 770.67 ± 0.31
x1 = 0.3993 | 762.07 ± 0.31
x1 = 0.4999 | 754.19 ± 0.32
x1 = 0.6006 | 746.71 ± 0.32
x1 = 0.7007 | 739.41 ± 0.32
x1 = 0.8001 | 732.66 ± 0.32
x1 = 0.9015 | 725.59 ± 0.33
x1 = 0.9514 | 722.22 ± 0.33

Cc1ccccc1 [toluene] + CCCO
[2]
Conditions | mass density [kg/m3]
x2 = 0.0491 | 859.7 ± 0.27
x2 = 0.0987 | 857.27 ± 0.27
x2 = 0.2003 | 852.39 ± 0.27
x2 = 0.2995 | 847.48 ± 0.27
x2 = 0.4006 | 842.21 ± 0.28
x2 = 0.5001 | 836.7 ± 0.28
x2 = 0.6001 | 830.71 ± 0.28
x2 = 0.7005 | 824.13 ± 0.28
x2 = 0.8001 | 817.01 ± 0.29
x2 = 0.9006 | 809.12 ± 0.29
x2 = 0.9497 | 805 ± 0.29

CC(C)OC(C)C [diisopropyl ether] + Cc1ccccc1
[2]
Conditions | mass density [kg/m3]
x1 = 0.05 | 853.94 ± 0.27
x1 = 0.0995 | 845.89 ± 0.27
x1 = 0.2004 | 829.97 ± 0.28
x1 = 0.2999 | 814.46 ± 0.29
x1 = 0.4001 | 799.53 ± 0.3
x1 = 0.5003 | 784.92 ± 0.31
x1 = 0.6001 | 770.99 ± 0.31
x1 = 0.7004 | 757.31 ± 0.31
x1 = 0.8003 | 744.27 ± 0.32
x1 = 0.9003 | 731.28 ± 0.33
x1 = 0.9498 | 725.19 ± 0.33

Reference: the NIST ThermoML archive (doi:10.1016/j.fluid.2008.06.019)
